# Measurements: article PMC5053523, “In Vitro Antibacterial Activity of Rhodanine Derivatives against Pathogenic Clinical Isolates” (PLoS ONE, 2016)
# Like-named read-outs stand apart in the source and are kept apart here.
# Legend:
# [1] = test system: methicillin-resistant Staphylococcus aureus (MRSA); experiment: Broth microdilution MIC/MBC, MRSA; assay type: cell-based; conditions: for MIC50 / MIC90: 11 MRSA strains
# Bacillus anthracis = experiment: microbe, parasite or virus in culture; assay type: cell-based
# Pseudomonas aeruginosa [2] = experiment: MIC with/without PMBN, Pseudomonas aeruginosa; assay type: cell-based
# Summary of the method: (§1)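 MIC of rhodanines and control antibiotics measured against Gram-negative bacteria in the presence of a sub-inhibitory concentration of colistin or polymixin B nonapeptide (PMBN). Activity was also tested against E. coli SM1411ΔacrAB, which lacks the AcrAB multidrug efflux pump.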
# Acinetobacter baumannii [3] = experiment: MIC with/without PMBN, Acinetobacter baumannii; assay type: cell-based
# Summary of the method: as §1
# [4] = test system: vancomycin resistant enterococci (VRE); experiment: Broth microdilution MIC50/MIC90, VRE panel; assay type: cell-based; conditions: Enterococcus, 10 VRE strains; for MIC90: VRE, read-out: MIC 90; for MIC50: read-out: MIC 50
# [5] = test system: vancomycin resistant enterococci (VRE) E. faecalis; experiment: Broth microdilution MIC/MBC, VRE E. faecalis; assay type: cell-based; conditions: for MIC: read-out: MIC
# Klebsiella pneumoniae = experiment: MIC with/without PMBN, Klebsiella pneumoniae; assay type: cell-based
# Summary of the method: as §1
# Acinetobacter baumannii [6] = experiment: Broth microdilution MIC, Acinetobacter baumannii; assay type: cell-based
# P. aeruginosa = experiment: Broth microdilution MIC, P. aeruginosa; assay type: cell-based; conditions: Pseudomonas aeruginosa
# Salmonella Typhimurium [7] = experiment: MIC with/without sub-MIC colistin, Salmonella Typhimurium; assay type: cell-based
# Summary of the method: as §1
# MRSA USA300 = experiment: MIC against MRSA USA300 with and without 4% human serum albumin; assay type: cell-based, Staphylococcus aureus; conditions: Staphylococcus aureus, read-out: MIC against MRSA USA300
# Summary of the method: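 Broth microdilution MIC per CLSI against MRSA USA300, run in tryptic soy broth alone and with 4% human serum albumin. MIC is the lowest concentration inhibiting growth.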
# Pseudomonas aeruginosa [8] = experiment: MIC with/without sub-MIC colistin, Pseudomonas aeruginosa; assay type: cell-based
# Summary of the method: as §1
# K. pneumoniae = experiment: Broth microdilution MIC, K. pneumoniae; assay type: cell-based
# Salmonella Typhimurium [9] = experiment: MIC with/without PMBN, Salmonella Typhimurium; assay type: cell-based
# Summary of the method: as §1
# [10] = Pseudomonas aeruginosa ATCC 9721, PMBN (+) 4 μg/mL, read-out: MIC
# [11] = Pseudomonas aeruginosa, ATCC9721
# [12] = Acinetobacter baumannii ATCC BAA747, PMBN (+) 4 μg/mL, read-out: MIC
# [13] = Acinetobacter baumannii ATCC BAA19606, PMBN (+) 4 μg/mL, read-out: MIC
# [14] = Acinetobacter baumannii, ATCCBAA747
# [15] = Acinetobacter baumannii, ATCCBAA19606
# [16] = E. faecalis NR31972 Strain SF 28073
# [17] = Klebsiella pneumoniae ATCC BAA 1706, PMBN (+) 4 μg/mL
# [18] = Klebsiella pneumoniae ATCC BAA 2146, PMBN (+) 4 μg/mL
# [19] = Salmonella Typhimurium ATCC 700720, colistin (+) […], read-out: MIC
# [20] = Salmonella enterica, ATCC 700720 / TYPHIMURIUM
# [21] = Pseudomonas aeruginosa ATCC 921, colistin (+) […], read-out: MIC
# [22] = Pseudomonas aeruginosa, ATCC921
# [23] = Salmonella Typhimurium ATCC 700720, PMBN (+) 4 μg/mL, read-out: MIC
compound,measurement,setting,value
O=C(O)[C@H](Cc1ccccc1)N1C(=O)/C(=C/c2cccc(OC/C=C/c3ccc(Cl)c(Cl)c3)c2)SC1=S [Rh 6],MIC50,[1],4 µM
same,MIC90,[1],8 µM
same,MBC,[1]; MRSA NRS 1,8 µM
same,MIC,[1]; MRSA NRS 1,8 µM
same,MBC,[1]; MRSA NRS 19,8 µM
same,MIC,[1]; MRSA NRS 19,8 µM
same,MBC,[1]; MRSA NRS 37,16 µM
same,MIC,[1]; MRSA NRS 37,8 µM
same,MBC,[1]; MRSA NRS 107,8 µM
same,MIC,[1]; MRSA NRS 107,8 µM
same,MBC,[1]; MRSA NRS 119,4 µM
same,MIC,[1]; MRSA NRS 119,4 µM
same,MBC,[1]; MRSA NRS 382,16 µM
same,MIC,[1]; MRSA NRS 382,4 µM
same,MBC,[1]; MRSA NRS 383,8 µM
same,MIC,[1]; MRSA NRS 383,4 µM
same,MBC,[1]; MRSA NRS 384,4 µM
same,MIC,[1]; MRSA NRS 384,4 µM
same,MBC,[1]; MRSA NRS 385,4 µM
same,MIC,[1]; MRSA NRS 385,4 µM
same,MBC,[1]; MRSA NRS 386,32 µM
same,MIC,[1]; MRSA NRS 386,4 µM
same,MBC,[1]; MRSA NRS 387,8 µM
same,MIC,[1]; MRSA NRS 387,4 µM
same,MBC,Bacillus anthracis; Bacillus anthracis AMES35,2 µM
same,MIC,Bacillus anthracis; Bacillus anthracis AMES35,2 µM
same,MBC,Bacillus anthracis; Bacillus anthracis UM23,2 µM
same,MIC,Bacillus anthracis; Bacillus anthracis UM23,2 µM
same,MBC,Bacillus anthracis; Bacillus anthracis Weybridge,2 µM
same,MIC,Bacillus anthracis; Bacillus anthracis Weybridge,2 µM
same,MIC,Pseudomonas aeruginosa [2]; [10],>64 µM
same,MIC,Pseudomonas aeruginosa [2]; [11],> 128 µM
same,MIC,Acinetobacter baumannii [3]; [12],>64 µM
same,MIC,Acinetobacter baumannii [3]; [13],>64 µM
same,MIC,Acinetobacter baumannii [3]; [14],> 128 µM
same,MIC,Acinetobacter baumannii [3]; [15],> 128 µM
same,MIC90,[4],8 µM
same,MIC50,[4],8 µM
same,MBC,[5]; E. faecalis ERV103 HM-934,16 µM
same,MIC,[5]; E. faecalis ERV103 HM-934,8 µM
same,MBC,[5]; [16],16 µM
same,MIC,[5]; [16],8 µM
same,MBC,[5]; E. faecalis R712 HM-335,8 µM
same,MIC,[5]; E. faecalis R712 HM-335,4 µM
same,MBC,[5]; E. faecalis S613 HM-334,16 µM
same,MIC,[5]; E. faecalis S613 HM-334,8 µM
same,MBC,[5]; E. faecalis TX0104 HM-201,8 µM
same,MIC,[5]; E. faecalis TX0104 HM-201,8 µM
same,MIC,Klebsiella pneumoniae; [17],>64 µM
same,MIC,Klebsiella pneumoniae; [18],>64 µM
same,MIC,"Klebsiella pneumoniae; Klebsiella pneumoniae, BAA1706",> 128 µM
same,MIC,"Klebsiella pneumoniae; Klebsiella pneumoniae, BAA2146",> 128 µM
same,MIC,Acinetobacter baumannii [6]; ATCC13345,> 128 µM
same,MIC,Acinetobacter baumannii [6]; ATCC17786,> 128 µM
same,MIC,P. aeruginosa; ATCC9721,> 128 µM
same,MIC,P. aeruginosa; ATCC15442,> 128 µM
same,MIC,Salmonella Typhimurium [7]; [19],>64 µM
same,MIC,Salmonella Typhimurium [7]; [20],> 128 µM
same,MIC,"MRSA USA300; 24 h, Media TSB + 4% HSA",> 64 µM
same,MIC,MRSA USA300; Media TSB,8 µM
same,MIC,Pseudomonas aeruginosa [8]; [21],>64 µM
same,MIC,Pseudomonas aeruginosa [8]; [22],> 128 µM
same,MIC,K. pneumoniae; K. pneumoniae NR-15417,>128 µM
same,MIC,K. pneumoniae; Klebsiella pneumoniae,> 128 µM
same,MIC,Salmonella Typhimurium [9]; [23],>128 µM
same,MIC,Salmonella Typhimurium [9]; [20],> 128 µM
O=C(O)[C@@H](Cc1ccccc1)N1C(=O)/C(=C/c2cccc(Cc3ccccc3)c2)SC1=S [Rh 7],MIC50,[1],8 µM
same,MIC90,[1],16 µM
same,MBC,[1]; MRSA NRS 1,16 µM
same,MIC,[1]; MRSA NRS 1,8 µM
same,MBC,[1]; MRSA NRS 19,8 µM
same,MIC,[1]; MRSA NRS 19,8 µM
same,MBC,[1]; MRSA NRS 37,16 µM
same,MIC,[1]; MRSA NRS 37,16 µM
same,MBC,[1]; MRSA NRS 107,16 µM
same,MIC,[1]; MRSA NRS 107,16 µM
same,MBC,[1]; MRSA NRS 119,8 µM
same,MIC,[1]; MRSA NRS 119,8 µM
same,MBC,[1]; MRSA NRS 383,16 µM
same,MIC,[1]; MRSA NRS 383,16 µM
same,MBC,[1]; MRSA NRS 384,64 µM
same,MIC,[1]; MRSA NRS 384,8 µM
same,MBC,[1]; MRSA NRS 385,16 µM
same,MIC,[1]; MRSA NRS 385,8 µM
same,MBC,[1]; MRSA NRS 386,> 64 µM
same,MIC,[1]; MRSA NRS 386,8 µM
same,MBC,[1]; MRSA NRS 387,8 µM
same,MIC,[1]; MRSA NRS 387,8 µM
same,MBC,Bacillus anthracis; Bacillus anthracis AMES35,2 µM
same,MIC,Bacillus anthracis; Bacillus anthracis AMES35,2 µM
same,MBC,Bacillus anthracis; Bacillus anthracis UM23,2 µM
same,MIC,Bacillus anthracis; Bacillus anthracis UM23,2 µM
same,MBC,Bacillus anthracis; Bacillus anthracis Weybridge,2 µM
same,MIC,Bacillus anthracis; Bacillus anthracis Weybridge,2 µM
same,MIC,Pseudomonas aeruginosa [2]; [10],>64 µM
same,MIC,Pseudomonas aeruginosa [2]; [11],> 128 µM
same,MIC,Acinetobacter baumannii [3]; [12],>64 µM
same,MIC,Acinetobacter baumannii [3]; [13],>64 µM
same,MIC,Acinetobacter baumannii [3]; [14],> 128 µM
same,MIC,Acinetobacter baumannii [3]; [15],> 128 µM
same,MIC90,[4],16 µM
same,MIC50,[4],16 µM
same,MBC,[5]; E. faecalis ERV103 HM-934,16 µM
same,MIC,[5]; E. faecalis ERV103 HM-934,16 µM
same,MBC,[5]; [16],16 µM
same,MIC,[5]; [16],16 µM
same,MBC,[5]; E. faecalis R712 HM-335,16 µM
same,MIC,[5]; E. faecalis R712 HM-335,8 µM
same,MBC,[5]; E. faecalis S613 HM-334,16 µM
same,MIC,[5]; E. faecalis S613 HM-334,16 µM
same,MBC,[5]; E. faecalis TX0104 HM-201,16 µM
same,MIC,[5]; E. faecalis TX0104 HM-201,16 µM
same,MIC,Klebsiella pneumoniae; [17],>64 µM
same,MIC,Klebsiella pneumoniae; [18],>64 µM
same,MIC,"Klebsiella pneumoniae; Klebsiella pneumoniae, BAA1706",> 128 µM
same,MIC,"Klebsiella pneumoniae; Klebsiella pneumoniae, BAA2146",> 128 µM
same,MIC,Acinetobacter baumannii [6]; ATCC13345,> 128 µM
same,MIC,Acinetobacter baumannii [6]; ATCC17786,> 128 µM
same,MIC,P. aeruginosa; ATCC9721,> 128 µM
same,MIC,P. aeruginosa; ATCC15442,> 128 µM
same,MIC,Salmonella Typhimurium [7]; [19],>64 µM
same,MIC,Salmonella Typhimurium [7]; [20],> 128 µM
same,MIC,"MRSA USA300; 24 h, Media TSB + 4% HSA",> 64 µM
same,MIC,MRSA USA300; Media TSB,16 µM
same,MIC,Pseudomonas aeruginosa [8]; [21],>64 µM
same,MIC,Pseudomonas aeruginosa [8]; [22],> 128 µM
same,MIC,K. pneumoniae; K. pneumoniae NR-15417,>128 µM
same,MIC,K. pneumoniae; Klebsiella pneumoniae,> 128 µM
same,MIC,Salmonella Typhimurium [9]; [23],>128 µM
same,MIC,Salmonella Typhimurium [9]; [20],> 128 µM
